Where two headings read alike, the source gives them in different places.
How the values were obtained:
Puccinia triticina = assay: Wheat brown rust, whole-plant fungicidal activity (PUCCRT); type: in vivo, Puccinia triticina on wheat plants (variety 'Yuma'); settings: 24 h, 1DP (1 day protectant), read-out: % Disease Control Rating PUCCRT
Procedure, shortened: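 Wheat 'Yuma' seedlings at first-leaf stage sprayed to run-off with compound from acetone stock diluted in nine volumes water containing 110 ppm Triton X-100, then inoculated with Puccinia triticina spores. Held overnight in dark dew room at 100% RH, then greenhouse for disease development.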

Phakopsora pachyrhizi = assay: Asian soybean rust, whole-plant fungicidal activity (PHAKPA); type: in vivo; settings: read-out: % Disease Control Rating PHAKPA
Procedure, shortened: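 Ten-day-old 'Williams 82' soybean seedlings sprayed to run-off with compound in acetone/water (1:9, 0.011% Tween-20), air-dried, then inoculated; 24 h dark dew room at 100% RH, then growth room. Disease severity scored 0–100% on sprayed leaves; percent control relative to untreated plants.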

Zymoseptoria tritici = assay: Septoria leaf blotch of wheat, whole-plant fungicidal activity (SEPTTR); type: in vivo, Zymoseptoria tritici on wheat plants (variety 'Yuma'); settings: read-out: % Disease Control Rating SEPTTR
Procedure, shortened: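 Compounds in acetone, diluted with nine volumes of water containing 110 ppm Triton X-100, were sprayed to run-off on 'Yuma' wheat seedlings at full first-leaf emergence. Spore inoculation was 3 days before (3DC, curative) or 1 day after (1DP, protectant) treatment, then 3 days at 100% RH and greenhouse. First-leaf disease severity (0–100%) was scored relative to untreated plants as percent control.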

Rhynchosporium commune = assay: Leaf blotch of barley, whole-plant fungicidal activity (RHYNSE); type: in vivo; settings: 24 h, 1DP (1 day protectant), read-out: % Disease Control Rating RHYNSE
Procedure, shortened: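 Barley cv. 'Harrington' at full first-leaf emergence (7-10 seedlings per pot) was sprayed to run-off with compound in acetone plus nine volumes of water containing 110 ppm Triton X-100, air-dried, then inoculated with spore suspension. Plants spent two days in a dark dew room at 100% RH, then moved to greenhouse for disease development.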

| melting point | Compound | pest or weed control at 200 ppm (Puccinia triticina) | pest or weed control at 200 ppm (Phakopsora pachyrhizi; 24 h, 1DP (1 day protectant)) | pest or weed control at 200 ppm (Phakopsora pachyrhizi; 72 h, 3DC (3 day curative)) | pest or weed control at 200 ppm (Zymoseptoria tritici; 24 h, 1DP (1 day protectant)) | pest or weed control at 200 ppm (Zymoseptoria tritici; 72 h, 3DC (3 day curative)) | pest or weed control at 200 ppm (Rhynchosporium commune) |
| --- | --- | --- | --- | --- | --- | --- | --- |
| 102 to 105 °C | CCN(C)/C=N/c1cc(C)c(C(=O)Cc2ccc(C)cc2F)cc1C [Compound 7] | > 85% | > 85% | > 85% | 20 to 50% | < 20% | > 85% |
| 73 to 76 °C | CCN(C)/C=N/c1cc(C)c(C(=O)Cc2cccc(C(F)(F)F)c2)cc1C [Compound 5] | > 85% | > 85% | > 85% | 20 to 50% | < 20% | > 85% |
| 49 to 52 °C | CCN(C)/C=N/c1ccc(C(=O)CCCC(F)(F)F)c(C)c1C [Compound 14] | > 85% | > 85% | > 85% | < 20% | < 20% | < 20% |
| 70 to 74 °C | CCN(C)/C=N/c1cc(C)c(C(=O)Cc2ccc(OC(F)(F)F)cc2)cc1C [Compound 8] | > 85% | > 85% | > 85% | 50 to 85% | 20 to 50% | > 85% |
| 53 to 57 °C | CCN(C)/C=N/c1ccc(C(=O)Cc2cccc(C(F)(F)F)c2)c(C)c1C [Compound 10] | < 20% | > 85% | > 85% | < 20% | < 20% | 20 to 50% |
| 101 to 105 °C | CCN(C)/C=N/c1cc(C)c(C(=O)Cc2ccccc2C)cc1C [Compound 1] | > 85% | > 85% | > 85% | < 20% | 20 to 50% | > 85% |
| 68 to 72 °C | CCN(C)/C=N/c1ccc(C(=O)CC2CCCCC2)c(C)c1C [Compound 15] | < 20% | > 85% | > 85% | < 20% | < 20% | 50 to 85% |
| – | CCN(C)/C=N/c1cc(C)c(C(=O)Cc2ccc(Cl)cc2F)cc1C [Compound 32] | > 85% | > 85% | > 85% | > 85% | < 20% | > 85% |
| – | Cc1cc(C(=O)CC2CCCC2)c(C)cc1/N=C/N(C)C(C)C [Compound 82] | > 85% | > 85% | > 85% | > 85% | < 20% | > 85% |
| – | CCN(C)/C=N/c1cc(C)c(C(=O)Cc2ccccc2OC(F)F)cc1C [Compound 83] | > 85% | > 85% | > 85% | < 20% | < 20% | > 85% |
| – | CCN(C)/C=N/c1cc(C)c(C(=O)C2CCC2)cc1C [Compound 25] | > 85% | > 85% | > 85% | 20 to 50% | < 20% | > 85% |
| – | C=CCN(C)/C(S)=N/c1cc(C)c(C(=O)CC2CCCCC2)cc1C [Compound 45] | > 85% | 20 to 50% | 50 to 85% | < 20% | < 20% | < 20% |
| – | Cc1cc(C(=O)CC2CCCC2)c(C)cc1/N=C/N1CCCCC1 [Compound 80] | > 85% | > 85% | > 85% | 50 to 85% | < 20% | > 85% |
| – | Cc1cc(C(=O)CC2CCCCC2)c(C)cc1/N=C/N(C)Cc1ccccc1 [Compound 56] | 20 to 50% | < 20% | < 20% | < 20% | < 20% | < 20% |
| – | CCN(C)/C=N/c1cc(C)c(C(=O)CCC(F)(F)F)cc1C [Compound 19] | > 85% | > 85% | > 85% | < 20% | 20 to 50% | 20 to 50% |
| – | CCN(C)/C=N/c1cc(C)c(C(=O)CC2CCCC2)cc1OC [Compound 74] | > 85% | > 85% | > 85% | < 20% | < 20% | 50 to 85% |
| – | CCc1ccc(CC(=O)c2cc(C)c(/N=C/N(C)CC)cc2C)cc1 [Compound 6] | > 85% | > 85% | > 85% | > 85% | 20 to 50% | > 85% |
| – | Cc1cc(C(=O)CC2CCCCC2)c(C)cc1/N=C(\S)N(C)C(C)C [Compound 47] | > 85% | > 85% | > 85% | > 85% | < 20% | 20 to 50% |
| – | CCN(C)/C=N/c1cc(C)c(C(=O)Cc2ccc(C)cc2C)cc1C [Compound 62] | > 85% | > 85% | 20 to 50% | > 85% | 50 to 85% | > 85% |
| – | CCN(C)/C=N/c1ccc(C(=O)Cc2ccc(C)cc2)c(C)c1C [Compound 12] | < 20% | 50 to 85% | 50 to 85% | < 20% | < 20% | < 20% |
| – | CCN(C)/C=N/c1ccc(C(=O)CC2CCCC2)cc1C [Compound 75] | > 85% | 20 to 50% | > 85% | < 20% | < 20% | < 20% |
| – | CCN(C)/C=N/c1cc(C)c(C(=O)Cc2ccc(C(C)C)cc2)cc1C [Compound 66] | > 85% | > 85% | > 85% | > 85% | < 20% | > 85% |
| 69 to 71 °C | CCN(C)/C=N/c1cc(C)c(C(=O)CC2CCCCC2)cc1C [Compound 3] | > 85% | > 85% | > 85% | > 85% | 20 to 50% | > 85% |
| 52 to 56 °C | CCN(C)/C=N/c1ccc(C(=O)CCC(F)(F)F)c(C)c1C [Compound 13] | < 20% | 50 to 85% | > 85% | < 20% | < 20% | < 20% |
| 43 to 46 °C | CCN(C)/C=N/c1cc(C)c(C(=O)Cc2ccccc2)cc1C [Compound 2] | > 85% | > 85% | > 85% | 20 to 50% | < 20% | > 85% |
| – | CCN(C)/C=N/c1cc(C)c(C(=O)CC2CCC2)cc1C [Compound 27] | > 85% | > 85% | > 85% | > 85% | 50 to 85% | > 85% |
